Patent US10071089B2 (Euro-Celtique S.A., priority 2013, dated 2018)

Tests used:
[1] = test system: male C57BL/6 RAG1-/- knockout mice; assay: Charcoal test of intestinal motility (GI transit); assay type: in vivo; details: charcoal meal; oral gavage three times a day for 7 days and once on 8th day; Oxy 10 mg/kg, Oxy/Nal 10/5.0 mg/kg
Description: Male mice of the strain C57BL/6 RAG −/− (Taconic Model 4175-M, Taconic Laboratories) with an approximal weight at arrival of 20±7 g at an approximal age of 5 to 10 weeks were used in the present study.
The formulations were prepared on Day 0 and used for Day 1 to Day 8 dosing. Sterile water was used as vehicle. Each of the two dose formulations was transferred into eight individual sterile vials through sterilization filters, one designated for each day of dosing. The dose formulations were stored refrigerated and protected from light.
Animals were administered the dose by oral gavage three times a day (˜4 hours apart) for 7 days and once on the 8th day. Prior to the first dose administration of the day, the dose formulation vials designated for that day were removed from the refrigerator, briefly mixed, and allowed to come to room temperature, where the vials remained throughout the day. After the third dose on day 7, all animals fasted through euthanasia. The dose volume was based on the animal's body weight on Day 1. Dose volume was recorded. […]
Thirty minutes after charcoal delivery, animals were euthanized by an overdose of CO2. […] Its full length and the length of charcoal meal traveled were measured in centimeters. Intestinal transit was expressed as the percentage of intestine length containing the meal, i.e. 100×(pylorus to meal front/pylorus to caecum length). […]

[2] = Body weights over 7 days of dosing; assay type: in vivo, mice; details: 10 mg/kg oxycodone or 10 mg/kg oxycodone/5 mg/kg naloxone, oral gavage
Description: Animals were administered the dose by oral gavage three times a day (˜4 hours apart) for 7 days and once on the 8th day. Prior to the first dose administration of the day, the dose formulation vials designated for that day were removed from the refrigerator, briefly mixed, and allowed to come to room temperature, where the vials remained throughout the day. After the third dose on day 7, all animals fasted through euthanasia. The dose volume was based on the animal's body weight on Day 1. Dose volume was recorded.
Individual body weights were recorded prior to administration of the first dose on Day 1. The body weight determinations prior to Day 1 dose administration was used to determine the dose administered for all subsequent doses. Subsequent body weights were recorded daily after the 2nd dose of the day on Days 2 through 7.

[3] = test system: bacteria in the mesenteric lymph nodes; assay: Colony forming units in mesenteric lymph nodes (bacterial translocation); assay type: in vivo, mice; details: blood and BHI agar; aerobic, anaerobic, CO2; G6 oxycodone, G7 oxycodone/naloxone
Description: Following euthanasia, the abdomen was opened. The mesenteric root was presented and the mesenteric net unfolded. The mesenteric lymph nodes (MLNs) were removed and surrounding fat was removed. The MLNs were then weighed into sterilized tubes. Following weighing, the MLNs were frozen in liquid nitrogen. Following freezing, the MLNs were placed on dry ice prior to storage in a −70° C. freezer […].
MLNs were obtained as indicated above and the amount of bacteria in the MLNs was analyzed by determining colony forming units (CFUs) per g MLN in different media and under different conditions as indicated in FIG. 7. Contaminated samples were not taken into account (contaminated samples in the different groups: 1 in G1, 1 in G3, 2 in G6 and 3 in G7). The statistical analysis was performed using one way ANCOVA.

[4] = test system: bacteria of different phyla in the small intestine; assay: Analysis of the contents of the small intestine (bacterial phyla)
Description: (§1) The small intestine, caecum, and colon were cut longitudinally. The contents of each were individually collected into separate containers with a small spatula or similar instrument, taking care to cause as little injury to the tissue as possible. The weight of the contents collected from each portion was recorded. The weights of the small intestine, caecum, and colon following removal of the contents were also recorded. Collected luminal contents samples were then frozen in liquid nitrogen. Luminal contents samples were then placed on dry ice before transfer to a −80° C. freezer.
The contents of the small intestine of the different groups were obtained as described above.

[5] = test system: bacteria of different phyla in the colon; assay: Analysis of the colon contents (bacterial phyla); details: phylum levels, FIG. 9; G1 untreated, G3 vehicle, G6, G7
Description: as §1

[6] = small intestine, n=7 for G6, n=4 for G7

COc1ccc2c3c1O[C@H]1C(=O)CC[C@@]4(O)[C@@H](C2)N(C)CC[C@]314 [oxycodone]
reduction of GI transit compared to vehicle [1]: 67% | average percentage body weight loss [2]: 4.17% | CFUs in MLNs (bacterial translocation into mesenteric lymph nodes) [3]: Increased CFUs | bacterioides in small intestine, G6-group compared to G7-group ([4]; phylum levels, FIG. 8): clear decrease | proteobacteria in small intestine, G6-group compared to G7-group ([4]; phylum levels, FIG. 8): clear increase | mice with completely (dramatically) altered small intestine microbiome composition [4, 6]: 2/7 | mice with pathogenic populations such as proteobacteria in small intestine [4, 6]: 5/7 | proteobacteria in colon compared to the remaining groups [5]: increase
